What was measured:
[1] = Learning and memory, Barnes maze, long-term treatment of normal WT mice; format: in vivo, mouse; conditions: 9 months, 10 mg/L in drinking water
Procedure: FIG. 18. Long-term alpha-1A agonist therapy improves learning and memory. Normal WT mice were treated 9 months with the alpha-1A agonist cirazoline, 10 mg/L in drinking water, and learning and memory were tested versus control mice using the Barnes maze. Left. […] Right. […] These studies treated mice for long periods with cirazoline, adding it to the drinking water. Mice treated with cirazoline had improvements in tests of learning and of memory (FIG. 18). […] 9 months in a mouse is equivalent to 18 to 27 years in a human.

cardiac myocytes = test: Cardiac cell protective and adaptive (anabolic) effects in vitro, comparison of alpha-1-agonists; format: cell-based

For c1ccc(C2CC2)c(OCC2=NCCN2)c1 [cirazoline], the “memory trials (errors made)” value [1] was “Findings were similar”, the “errors in learning trials” value ([1]; vs control mice) was “fewer errors” and the “time to solve in learning trials” value ([1]; vs control mice) was “faster to solve”. The “potency and efficacy relative to A61603” value (cardiac myocytes; cardiac myocytes, FIG. 1-2) was “a good bit less potent and efficacious” and the “specificity, potency, efficacy in stimulating anabolic effects in cells relative to A61603” value (cardiac myocytes; cells (e.g. cardiac myocytes)) was “not as specific, potent, or efficacious as A61603”.
